Source: US10889569B2, “Condensed ring group azacyclobutyl triazole derivative, preparation method therefor and use thereof in medicine” (Jiangsu Hengrui Medicine Co., Ltd., priority 2016, dated 2021)

Columns and labels:
Assay type in all cases: cell-based
[1] = target: human V1aR (Homo sapiens (Human), UniProt P37288); experiment: Inhibition activity on human V1aR (Fluo-4 calcium assay, HEK293/human V1aR stably transfected cells); conditions: vasopressin 3 nM
Procedure: The inhibition effect of the compounds of the present invention on the activity of human V1 aR protein expressed in HEK293/human V1aR stably transfected cells was determined by the following experimental method:
The pcDNA3.1-V1aR plasmid was transferred into HEK293 cells with the Lipofectamine® 3000 transfection reagent; G418 was added on the next day to screen, and monoclonal cell lines were selected.
(§1) HEK293/human V1aR stably transfected cells were inoculated in a 96-well plate with an inoculation density of 25,000 cells/well one day in advance. On the next day, a loading buffer containing Fluo-4 dye was formulated using the reagents in the Fluo-4 NW calcium assay kit, and the culture medium was then removed; 100 μl of the loading buffer containing Fluo-4 dye were added to each well, and the plate was incubated at 37° C. for 30 minutes. After that, the plate was moved to room temperature and equilibrated for 10 minutes. The compounds were formulated at 10^6, 10^5, 10^4, 10^3, 10^2 and 10^1 nM. 1 μl of the compounds in each concentration was added to each well, and the plate was incubated at room temperature for 10 minutes. 50 μl of vasopressin polypeptide (3 nM) were automatically added by the machine, and the values were immediately detected at 494/516 nM by the flexstation 3 microplate reader. IC50 values of the compounds were calculated by Graphpad prism software using fluorescence signals corresponding to different concentrations.
The inhibition activity of the compounds of the present invention on human V1aR was determined by the above test, and the obtained IC50 values are shown in Table 2.

[2] = target: human V1bR (Homo sapiens, UniProt P47901); experiment: Inhibition activity on human V1bR (Fluo-4 calcium assay, HEK293/human V1bR pool cells); conditions: vasopressin 3 nM
Procedure: The inhibition effect of the compounds of the present invention on the activity of human V1bR protein expressed in HEK293/human V1bR cells was determined by the following experimental method:
The pcDNA3.1-V1bR plasmid was transferred into HEK293 cells with the Lipofectamine® 3000 transfection reagent; G418 was added on the next day, and the HEK293/human V1bR pool cell lines were obtained.
as §1, with “HEK293/human V1bR pool” for “HEK293/human V1aR stably transfected”, “formulated into” for “formulated at”
The inhibition activity of the compounds of the present invention on human V1bR was determined by the above test, and the obtained IC50 values are shown in Table 3.

[3] = target: human OTR (Homo sapiens, UniProt P30559); experiment: Inhibition activity on human OTR (Fluo-4 calcium assay, HEK293/human OTR stably transfected cells); conditions: oxytocin 3 nM
Procedure: The inhibition effect of the compounds of the present invention on the activity of human OTR protein expressed in HEK293/human OTR stably transfected cells was determined by the following experimental method:
The pcDNA3.1-hOTR plasmid was transferred into HEK293 cells with the Lipofectamine® 3000 transfection reagent; G418 was added on the next day to screen, and monoclonal cell lines were selected.
as §1, with “OTR” for “V1aR”, “oxytocin” for “vasopressin”
The inhibition activity of the compounds of the present invention on human OTR was determined by the above test, and the obtained IC50 values are shown in Table 1.

[4] = target: human V2R (Homo sapiens (Human), UniProt P30518); experiment: Inhibition activity on human V2R (cAMP HTRF assay, HEK293/human V2R pool cells); conditions: vasopressin
Procedure: The inhibition effect of the compounds of the present invention on the activity of human V2R protein expressed in HEK293/human V2R cells was determined by the following experimental method:
The pcDNA3.1-V2R plasmid was transferred into HEK293 cells with the Lipofectamine® 3000 transfection reagent; G418 was added on the next day, and the HEK293/human V2R pool cell lines were obtained.
HEK293/human V2R pool cells were dissociated with the cell dissociation solution (enzyme-free), thereby dissociating the cells from the cell culture dish into individual cells. Then the cell solution was blown well, and centrifuged to remove the supernatant. The cells were resuspended in the test buffer 1 (1×HBSS+20 mM HEPES+0.1% BSA) and counted. The cell density was adjusted to 1250 cells/5 μl, i.e., 2.5*10^5/ml.
The compounds were formulated into a series of concentrations of 20 mM, 6.67 mM, 2.22 mM, 0.74 mM, 0.25 mM, 0.08 mM, 27.4 μM, 9.14 μM, 3.05 μM, 1.02 μM, 0.34 μM and 0 μM (DMSO) with pure DMSO. The compounds were then diluted into a 4-fold working concentration solution with the test buffer 2 (test buffer 1+1 mM IBMX).
Agonist: 460 μM vasopressin was used as the mother liquor, which was formulated at 2 μM with DMSO, and then diluted to 0.5 nM with the test buffer 2.
Standards: The first point was 20 μl of a stock solution (2848 nM), which was diluted successively to a total of eleven concentrations in a 4-fold concentration gradient with the test buffer 1 from the second point.
1. The well-mixed cells were added to a 384-well plate (5 μl/well) without changing the tip.
2. The test compounds and positive compound formulated were added (2.5 μl/well), and the tips were changed.
3. The plate was centrifuged at 1000 rpm for 1 min, shaken for 30 sec to mix well, and incubated at room temperature for 30 min.
4. The standard curve wells were added with the test buffer 2 (5 μl/well).
5. The formulated agonist was added (2.5 μl/well), and the tips were changed; the plate was centrifuged at 1000 rpm for 1 min, shaken for 30 sec to mix well, and incubated at room temperature for 30 min.
6. cAMP-d2 (a component in the cAMP dynamic 2 kit) and Anti-cAMP-Eu-Cryptate (a component in the cAMP dynamic 2 kit) were formulated in the dark, which were then mixed well with cAMP lysate (a component in the cAMP dynamic 2 kit) in a ratio of 1:4. Each well was added with the formulated cAMP-d2 solution (5 μl/well), followed by addition of Anti-cAMP-Eu-Cryptate (5 μl/well). The plate was shaken for 30 sec to mix well, and incubated in the dark at room temperature for 1 h.
The HTRF Signals were Read by the PheraStar Multi-Function Microplate Reader.
The data in this test was processed using the data processing software Graphpad Prism.
The inhibition activity of the compounds of the present invention on human V2R was determined by the above test, and the IC50 values obtained are shown in Table 4.

Sequence of human V2R (P30518 whole entry): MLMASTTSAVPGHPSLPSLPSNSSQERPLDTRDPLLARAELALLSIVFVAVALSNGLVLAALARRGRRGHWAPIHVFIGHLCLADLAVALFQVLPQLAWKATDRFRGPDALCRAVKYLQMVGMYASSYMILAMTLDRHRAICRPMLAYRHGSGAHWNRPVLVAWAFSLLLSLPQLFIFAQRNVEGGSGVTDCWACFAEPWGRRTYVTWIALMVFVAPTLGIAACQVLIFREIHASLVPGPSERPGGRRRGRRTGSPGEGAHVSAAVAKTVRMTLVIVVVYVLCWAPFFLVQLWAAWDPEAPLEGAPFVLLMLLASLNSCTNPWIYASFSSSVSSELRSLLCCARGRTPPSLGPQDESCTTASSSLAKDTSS
Sequence of human V1aR (P37288 whole entry): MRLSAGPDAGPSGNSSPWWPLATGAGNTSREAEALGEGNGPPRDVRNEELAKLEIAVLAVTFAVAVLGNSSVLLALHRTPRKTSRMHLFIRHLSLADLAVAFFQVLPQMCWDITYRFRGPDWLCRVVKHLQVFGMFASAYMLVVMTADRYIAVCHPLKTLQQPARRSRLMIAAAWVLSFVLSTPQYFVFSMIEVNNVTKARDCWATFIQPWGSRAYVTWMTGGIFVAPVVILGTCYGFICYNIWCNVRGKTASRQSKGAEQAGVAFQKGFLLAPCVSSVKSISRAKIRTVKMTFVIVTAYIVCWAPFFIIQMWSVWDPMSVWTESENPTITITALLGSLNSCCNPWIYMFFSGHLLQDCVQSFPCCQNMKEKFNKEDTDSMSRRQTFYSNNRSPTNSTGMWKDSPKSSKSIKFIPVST

IC50 [1]	IC50 [2]	IC50 [3]	IC50 [4]	SMILES
5.7 µM	12.4 µM	0.091 µM	20.7 µM	COCc1nnc(N2CC(n3cc(Cl)c4cc(F)ccc43)C2)n1-c1ccc(OC)nc1 [Example 10, 3-Chloro-5-fluoro-1-(1-(5-(methoxymethyl)-4-(6-methoxypyridin-3-yl)-4H-1,2,4-triazol-3-yl)azetidin-3-yl)-1H-indole]
10.9 µM	25.8 µM	0.13 µM	11.8 µM	COCc1nnc(N2CC(c3cn(C)c4cc(F)ccc34)C2)n1-c1ccc(OC)nc1 [Example 14, 6-Fluoro-3-(1-(5-(methoxymethyl)-4-(6-methoxypyridin-3-yl)-4H-1,2,4-triazol-3-yl)azetidin-3-yl)-1-methyl-1H-indole]
2.7 µM	38.8 µM	0.025 µM	17.3 µM	COCc1nnc(N2CC(C3CCOc4cc(F)ccc43)C2)n1-c1ccc(OC)nc1 (stereo not shown) [Example 21, 5-(3-(3-(7-Fluorobenzodihydropyran-4-yl)azetidin-1-yl)-5-(methoxymethyl)-4H-1,2,4-triazol-4-yl)-2-methoxypyridine]
10.7 µM	44.1 µM	0.1 µM	67.2 µM	COCc1nnc(N2CC(N3CCOc4cc(F)ccc43)C2)n1-c1ccc(OC)nc1 [Example 24, 7-Fluoro-4-(1-(5-(methoxymethyl)-4-(6-methoxypyridin-3-yl)-4H-1,2,4-triazol-3-yl)azetidin-3-yl)-3,4-dihydro-2H-benzo[b][1,4]oxazine]
6.2 µM	95.1 µM	0.064 µM	12.1 µM	COc1ccc(-n2c(C)nnc2N2CC(N3CCCc4cc(F)ccc43)C2)cn1 [Example 29, 6-Fluoro-1-(1-(4-(6-methoxypyridin-3-yl)-5-methyl-4H-1,2,4-triazol-3-yl)azetidin-3-yl)-1,2,3,4-tetrahydroquinoline]
8.5 µM	20.7 µM	0.004 µM	6.7 µM	COCc1nnc(N2CC(N3CCCc4cc(F)ccc43)C2)n1-c1ccc(OC)nc1 [Example 30, 6-Fluoro-1-(1-(5-(methoxymethyl)-4-(6-methoxypyridin-3-yl)-4H-1,2,4-triazol-3-yl)azetidin-3-yl)-1,2,3,4-tetrahydroquinoline]
3.5 µM	54.5 µM	0.079 µM	5.8 µM	CCOCc1nnc(N2CC(N3CCOc4cc(F)ccc43)C2)n1-c1ccc(OC)nc1 [Example 31, 4-(1-(5-(Ethoxymethyl)-4-(6-methoxypyridin-3-yl)-4H-1,2,4-triazol-3-yl)azetidin-3-yl)-7-fluoro-3,4-dihydro-2H-benzo[b][1,4]oxazine]
